Assay results published in US20080161232A1, “C5a Receptor Antagonist” (JERINI AG, priority 2005, published 2008).
Positions of bridges follow the written chain, without caps; N, C: chain ends. Non-standard residues stand in square brackets, D forms with d. Residues, ends and D or L forms follow the SMILES beside them. Phe(3-Cl) = N[C@@H](Cc1cccc(Cl)c1)C(=O)O; Phe(3-Me) = Cc1cccc(C[C@H](N)C(=O)O)c1; Phe(4-F) = N[C@@H](Cc1ccc(F)cc1)C(=O)O; 1Nal = N[C@@H](Cc1cccc2ccccc12)C(=O)O; His(τ-Me) = Cn1cnc(C[C@H](N)C(=O)O)c1; Bta = N[C@@H](Cc1csc2ccccc12)C(=O)O; Hyp = O=C(O)[C@@H]1C[C@@H](O)CN1; d(hLeu) = CC(C)CC[C@@H](N)C(=O)O; Cha = N[C@@H](CC1CCCCC1)C(=O)O; NMeN = CN[C@@H](CC(N)=O)C(=O)O; dCha = N[C@H](CC1CCCCC1)C(=O)O; Chg = N[C@H](C(=O)O)C1CCCCC1; dNle = CCCC[C@@H](N)C(=O)O; Pip = O=C(O)[C@@H]1CCCCN1; Nle = CCCC[C@H](N)C(=O)O; Orn = NCCC[C@H](N)C(=O)O

The molecules below were run against T1, human C5aR(CD88) (Homo sapiens, UniProt P21730) (assay: Determination of the IC50 value in an enzyme release assay (functional assay, antagonistic activity)). Conditions: antagonistic activity; IC50 group in enzyme release assay, RBL cells expressing human C5aR(CD88); read-out: activity (group).
T1 construct: expressed in transfected cells; host or cells: rat basophilic leukemia cells (RBL)
T1 sequence (P21730 1-350): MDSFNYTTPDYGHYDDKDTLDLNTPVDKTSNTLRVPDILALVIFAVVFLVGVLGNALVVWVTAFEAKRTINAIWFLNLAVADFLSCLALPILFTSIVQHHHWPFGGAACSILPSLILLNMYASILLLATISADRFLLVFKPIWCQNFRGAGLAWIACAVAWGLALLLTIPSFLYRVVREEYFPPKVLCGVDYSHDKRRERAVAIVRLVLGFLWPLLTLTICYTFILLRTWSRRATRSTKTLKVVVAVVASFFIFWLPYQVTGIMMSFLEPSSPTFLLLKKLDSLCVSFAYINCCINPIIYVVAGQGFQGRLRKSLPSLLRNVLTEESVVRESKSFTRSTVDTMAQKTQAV
Type: cell-based

SMILES	IC50 [nM]
CC(=O)N[C@@H](Cc1ccccc1)C(=O)N[C@H]1CCCNC(=O)[C@H](Cc2ccccc2)NC(=O)[C@H](Cc2c[nH]c3ccccc23)NC(=O)[C@@H](CC2CCCCC2)NC(=O)[C@@H]2C[C@@H](OC(C)=O)CN2C1=O [Compound 176, Ac-Phe-[Orn-HyA-cha-Trp-Phe]] (Ac-F[Orn][Hyp](Ac)[dCha]WF; lactam 2-C)	50 to 200
CC(=O)N[C@@H](Cc1ccccc1)C(=O)N[C@H]1CCCNC(=O)[C@H](Cc2ccccc2)NC(=O)[C@H](Cc2csc3ccccc23)NC(=O)[C@@H](CCC(C)C)NC(=O)[C@@H]2C[C@@H](O)CN2C1=O [Compound 177, Ac-Phe-[Orn-Hyp-hle-Bta-Phe]] (Ac-F[Orn][Hyp][d(hLeu)][Bta]F; lactam 2-C)	50 to 200
CC(=O)N[C@@H](Cc1ccccc1)C(=O)N[C@H]1CCCNC(=O)[C@H](Cc2ccccc2)NC(=O)[C@H](Cc2cccc(Cl)c2)NC(=O)[C@@H](CCC(C)C)NC(=O)[C@@H]2C[C@@H](O)CN2C1=O [Compound 178, Ac-Phe-[Orn-Hyp-hle-Mcf-Phe]] (Ac-F[Orn][Hyp][d(hLeu)][Phe(3-Cl)]F; lactam 2-C)	50 to 200
CCCC[C@@H]1NC(=O)[C@H](Cc2ccc(F)cc2)NC(=O)[C@@H](CCC(C)C)NC(=O)[C@@H]2C[C@@H](O)CN2C(=O)[C@@H](NC(=O)[C@H](Cc2ccccc2)NC(C)=O)CCCNC1=O [Compound 179, Ac-Phe-[Orn-Hyp-hle-Pff-Nle]] (Ac-F[Orn][Hyp][d(hLeu)][Phe(4-F)][Nle]; lactam 2-C)	50 to 200
CC(=O)N[C@@H](Cc1ccccc1)C(=O)N[C@H]1CCCNC(=O)[C@H](Cc2ccccc2)NC(=O)[C@H](Cc2ccc(F)cc2)NC(=O)[C@@H](CCC(C)C)NC(=O)[C@@H]2C[C@@H](O)CN2C1=O [Compound 180, Ac-Phe-[Orn-Hyp-hle-Pff-Phe]] (Ac-F[Orn][Hyp][d(hLeu)][Phe(4-F)]F; lactam 2-C)	50 to 200
CC(=O)N[C@@H](Cc1ccccc1)C(=O)N[C@H]1CCCNC(=O)[C@H](Cc2ccccc2)NC(=O)[C@H](Cc2c[nH]c3ccccc23)NC(=O)[C@@H](CCC(C)C)NC(=O)[C@@H]2C[C@@H](O)CN2C1=O [Compound 181, Ac-Phe-[Orn-Hyp-hle-Trp-Phe]] (Ac-F[Orn][Hyp][d(hLeu)]WF; lactam 2-C)	20 to 50
CCCC[C@@H]1NC(=O)[C@H](Cc2c[nH]c3ccccc23)NC(=O)[C@H](Cc2cccc(C)c2)NC(=O)[C@@H]2C[C@@H](O)CN2C(=O)[C@@H](NC(=O)[C@H](Cc2ccccc2)NC(C)=O)CCCNC1=O [Compound 182, Ac-Phe-[Orn-Hyp-Mmf-Trp-Nle]] (Ac-F[Orn][Hyp][Phe(3-Me)]W[Nle]; lactam 2-C)	50 to 200
CC(=O)N[C@@H](Cc1ccccc1)C(=O)N[C@H]1CCCNC(=O)[C@H](Cc2ccccc2)NC(=O)[C@H](Cc2c[nH]c3ccccc23)NC(=O)[C@H](Cc2cccc(C)c2)NC(=O)[C@@H]2C[C@@H](O)CN2C1=O [Compound 183, Ac-Phe-[Orn-Hyp-Mmf-Trp-Phe]] (Ac-F[Orn][Hyp][Phe(3-Me)]WF; lactam 2-C)	50 to 200
CCCC[C@@H]1NC(=O)[C@H](Cc2c[nH]c3ccccc23)NC(=O)[C@@H](CC2CCCCC2)NC(=O)[C@H](CC(N)=O)N(C)C(=O)[C@@H](NC(=O)[C@H](Cc2ccccc2)NC(C)=O)CCCNC1=O [Compound 184, Ac-Phe-[Orn-NMD-cha-Trp-Nle]] (Ac-F[Orn][NMeN][dCha]W[Nle]; lactam 2-C)	50 to 200
CC(=O)N[C@@H](Cc1ccccc1)C(=O)N[C@H]1CCCNC(=O)[C@H](Cc2ccccc2)NC(=O)[C@H](Cc2csc3ccccc23)NC(=O)[C@@H](CCC(C)C)NC(=O)[C@@H]2CCCCN2C1=O [Compound 185, Ac-Phe-[Orn-Pip-hle-Bta-Phe]] (Ac-F[Orn][Pip][d(hLeu)][Bta]F; lactam 2-C)	50 to 200
CCCC[C@@H]1NC(=O)[C@H](Cc2ccc(F)cc2)NC(=O)[C@@H](CC2CCCCC2)NC(=O)[C@@H]2CCCN2C(=O)[C@@H](NC(=O)[C@H](Cc2ccccc2)NC(C)=O)CCCNC1=O [Compound 186, Ac-Phe-[Orn-Pro-cha-Pff-Nle]] (Ac-F[Orn]P[dCha][Phe(4-F)][Nle]; lactam 2-C)	50 to 200
CC(=O)N[C@@H](Cc1ccccc1)C(=O)N[C@H]1CCCNC(=O)[C@H](Cc2ccccc2)NC(=O)[C@H](Cc2ccc(F)cc2)NC(=O)[C@@H](CC2CCCCC2)NC(=O)[C@@H]2CCCN2C1=O [Compound 187, Ac-Phe-[Orn-Pro-cha-Pff-Phe]] (Ac-F[Orn]P[dCha][Phe(4-F)]F; lactam 2-C)	50 to 200
CC(=O)N[C@@H](Cc1ccccc1)C(=O)N[C@H]1CCCNC(=O)[C@H](Cc2ccccc2)NC(=O)[C@H](Cc2csc3ccccc23)NC(=O)[C@@H](CCC(C)C)NC(=O)[C@@H]2CCCN2C1=O [Compound 197, Ac-Phe-[Orn-Pro-hle-Bta-Phe]] (Ac-F[Orn]P[d(hLeu)][Bta]F; lactam 2-C)	50 to 200

Second part, the molecule after the results:

IC50 [nM]	SMILES
50 to 200	CC(=O)N[C@@H](Cc1ccccc1)C(=O)N[C@H]1CCCNC(=O)[C@H](Cc2cccc3ccccc23)NC(=O)[C@H](Cc2c[nH]c3ccccc23)NC(=O)[C@@H](CC2CCCCC2)NC(=O)[C@@H]2CCCN2C1=O [Compound 188, Ac-Phe-[Orn-Pro-cha-Trp-1Ni]] (Ac-F[Orn]P[dCha]W[1Nal]; lactam 2-C)
50 to 200	CC(=O)N[C@@H](Cc1ccccc1)C(=O)N[C@H]1CCCNC(=O)[C@H](CC2CCCCC2)NC(=O)[C@H](Cc2c[nH]c3ccccc23)NC(=O)[C@@H](CC2CCCCC2)NC(=O)[C@@H]2CCCN2C1=O [Compound 189, Ac-Phe-[Orn-Pro-cha-Trp-Cha]] (Ac-F[Orn]P[dCha]W[Cha]; lactam 2-C)
50 to 200	CC(=O)N[C@@H](Cc1ccccc1)C(=O)N[C@H]1CCCNC(=O)[C@H](C2CCCCC2)NC(=O)[C@H](Cc2c[nH]c3ccccc23)NC(=O)[C@@H](CC2CCCCC2)NC(=O)[C@@H]2CCCN2C1=O [Compound 190, Ac-Phe-[Orn-Pro-cha-Trp-Chg]] (Ac-F[Orn]P[dCha]W[Chg]; lactam 2-C)
20 to 50	CC(=O)N[C@@H](Cc1ccccc1)C(=O)N[C@H]1CCCNC(=O)[C@H](Cc2cn(C)cn2)NC(=O)[C@H](Cc2c[nH]c3ccccc23)NC(=O)[C@@H](CC2CCCCC2)NC(=O)[C@@H]2CCCN2C1=O [Compound 192, Ac-Phe-[Orn-Pro-cha-Trp-Ecr]] (Ac-F[Orn]P[dCha]W[His(τ-Me)]; lactam 2-C)
50 to 200	CC(=O)N[C@@H](Cc1ccccc1)C(=O)N[C@H]1CCCNC(=O)[C@H](CC(C)C)NC(=O)[C@H](Cc2c[nH]c3ccccc23)NC(=O)[C@@H](CC2CCCCC2)NC(=O)[C@@H]2CCCN2C1=O [Compound 193, Ac-Phe-[Orn-Pro-cha-Trp-Leu]] (Ac-F[Orn]P[dCha]WL; lactam 2-C)
50 to 200	CCCC[C@H]1NC(=O)[C@H](Cc2c[nH]c3ccccc23)NC(=O)[C@@H](CC2CCCCC2)NC(=O)[C@@H]2CCCN2C(=O)[C@@H](NC(=O)[C@H](Cc2ccccc2)NC(C)=O)CCCNC1=O [Compound 194, Ac-Phe-[Orn-Pro-cha-Trp-nle]] (Ac-F[Orn]P[dCha]W[dNle]; lactam 2-C)
50 to 200	CCCC[C@@H]1NC(=O)[C@H](Cc2csc3ccccc23)NC(=O)[C@@H](CCC(C)C)NC(=O)[C@@H]2CCCN2C(=O)[C@@H](NC(=O)[C@H](Cc2ccccc2)NC(C)=O)CCCNC1=O [Compound 196, Ac-Phe-[Orn-Pro-hle-Bta-Nle]] (Ac-F[Orn]P[d(hLeu)][Bta][Nle]; lactam 2-C)
